Data published in ChEMBL document CHEMBL1150913, “Novel cytotoxic cembranoids from the soft coral Sinularia flexibilis” (1998).
Values after ≈ are worked out from the molar mass of the structure shown.

What was measured:
Format in all cases: functional
[1] = tested on: P388; assay: Cytotoxicity against mouse P388 cells after 3 days by MTT assay; details: P388, 72 h, read-out: ED50 (the source's name)
[2] = tested on: KB; assay: Cytotoxicity against human KB cells after 3 days by MTT assay; details: 72 h, read-out: ED50 (the source's name)
[3] = tested on: HT-29; assay: Cytotoxicity against human HT-29 cells after 6 days by MTT assay; details: HT-29, 144 h, read-out: ED50 (the source's name)
[4] = tested on: A549; assay: Cytotoxicity against human A549 cells after 6 days by MTT assay; details: A549, 144 h, read-out: ED50 (the source's name)

## C/C1=C\CC[C@@](C)(O)[C@H]2C[C@H](CC[C@](C)(O)[C@H](O)CC1)[C@@H](C)C(=O)O2 [DIHYDROSINUFLEXOLIDE]
[1]
  EC50: 3.86 µg/mL (≈ 10.9 µM)
[2]
  EC50: > 50 µg/mL
[3]
  EC50: 32.4 µg/mL (≈ 91.4 µM)
[4]
  EC50: 16.8 µg/mL (≈ 47.4 µM)

## C=C(C(=O)OC)[C@H]1CC[C@](C)(O)[C@H](O)CC/C(C)=C/CC[C@@](C)(O)[C@@H](O)C1 [SINUFLEXIBILIN]
[1]
  EC50: 0.27 µg/mL (≈ 0.702 µM)
[2]
  EC50: 1.73 µg/mL (≈ 4.5 µM)
[3]
  EC50: 0.22 µg/mL (≈ 0.572 µM)
[4]
  EC50: 0.72 µg/mL (≈ 1.87 µM)

## C=C1C(=O)O[C@@H]2C[C@@H]1CC[C@](C)(O)[C@H](O)CC/C(C)=C/CC[C@@]2(C)O [SINUFLEXOLIDE]
[1]
  EC50: 0.16 µg/mL (≈ 0.454 µM)
[2]
  EC50: 0.46 µg/mL (≈ 1.31 µM)
[3]
  EC50: 0.39 µg/mL (≈ 1.11 µM)
[4]
  EC50: 0.68 µg/mL (≈ 1.93 µM)
